One assay relates to HCC70 cells. The assay can be described thus: Inhibition of cell proliferation, CellTiter-Glo, HCC70. Type of assay: cell-based. To be noted: Homo sapiens, HCC70, 72 h, Efficacy Example 2 (Table 2), 72 h incubation. The protocol:
(§1) The compounds were each prepared with 100% DMSO into 10 mM mother liquor.
(§2) HCC70 cells and OVCAR3 cells were digested and counted. Cells were diluted to an appropriate concentration according to cell density. 100 μL of cells were added to each well of a 96-well plate. Medium wells served as blank control (Min). The cells were incubated overnight in an incubator at 37° C./5% CO2.
(§3) A 200-fold stock solution of a compound was prepared with DMSO, and the compound was diluted with growth medium to a 3-fold stock solution, i.e., […] of each of 200-fold stock solutions of compound at different concentrations was added to 197 μL of medium. 50 μL of diluted compound was added to each well and the mixture was incubated at 37° C./5% CO2 for 72 h.
(§4) The 96-well plate was equilibrated to room temperature before detection. 40 μL of CellTiter-Glo solution was added to each well. The mixture was mixed for 2 min using a horizontal shaker to induce cell lysis. The mixture was incubated at room temperature for 60 min to stabilize […] signals. Fluorescence values were read on ENVISION.
(§5) (1) Data was analyzed by GraphPad Prism 5
(§6) (2) % inhibition rate=(maximum signal−compound signal)/(maximum signal−minimum signal)×100
(§7) (3) Maximum signal: signal of DMSO well
(§8) (4) Minimum signal: signal of medium well
(§9) The effect of SZ-015200, SZ-015256 and SZ-015268 on cell proliferation after incubation with HCC70, OVCAR-3, HCT116 and HCC1806 cells for 3 days was detected according to the method described in Efficacy Example 2, and the results are shown in Table 3.
(In general: ATP-based viability assays read luminescence as a measure of living cells.)

The test system of a further assay is OVCAR3 cells. Put plainly: Inhibition of cell proliferation, CellTiter-Glo, OVCAR3. Type of assay: cell-based. The following applies: Homo sapiens, OVCAR-3, 72 h, Efficacy Example 2 (Table 2), 72 h incubation. The protocol:
as §1, §2, §3, §4, §5, §6, §7, §8, §9

Consider 22 compounds from patent US20230115907A1, “HETEROCYCLIC COMPOUND AND PHARMACEUTICAL COMPOSITION, PREPARATION METHOD, INTERMEDIATE AND USE THEREOF” (EVOPOINT BIOSCIENCES CO., LTD., priority 2019, published 2023).

Broadly, the IC50 is the point on the concentration scale where inhibition reaches its midpoint. A low value points to greater potency. In the assay on HCC70 cells, `Cc1nc(NC2CCN(C(=O)OC3CN(C(=O)/C=C/CN(C)C)C3)CC2)c2ncn(C(C)C)c2n1` [SZ-015308, (E)-1-(4-(dimethylamino)but-2-enoyl)azetidin-3-yl 4-((9-isopropyl-2-methyl-9H-purin-6-yl)amino)piperidine-1-carboxylate] gave an IC50 of 92.1 nM. With `CC(C)c1cnc2c(NC3CCN(C(=O)O[C@H]4CCN(C(=O)/C=C/CN(C)C)C4)CC3)nc(C3CC3)nn12` [SZ-015338, (S,E)-1-(4-(dimethylamino)but-2-enoyl)pyrrolidin-3-yl 4-((2-cyclopropyl-7-isopropylimidazo[2,1-f][1,2,4]triazin-4-yl)amino)piperidine-1-carboxylate], the IC50 in the assay on HCC70 cells was found to be 48.7 nM; in the assay with OVCAR3 cells, 29.7 nM. The like results for `Cc1nc(NC2CCN(C(=O)O[C@@H]3CCN(C(=O)/C=C/CN(C)C)C3)CC2)n2ncc(C(C)C)c2n1` [SZ-015282, (R,E)-1-(4-(dimethylamino)but-2-enoyl)pyrrolidin-3-yl 4-((8-isopropyl-2-methylpyrazolo[1,5-a][1,3,5]triazin-4-yl)amino)piperidine-1-carboxylate] were, in that order, 82.4 nM and 92.1 nM. Regarding `CC(C)c1cc(NC2CCN(C(=O)O[C@H]3CCN(C(=O)/C=C/CN(C)C)C3)CC2)c2ncn(C(C)C)c2n1` [SZ-015319, (S,E)-1-(4-(dimethylamino)but-2-enoyl)pyrrolidin-3-yl 4-((3,5-diisopropyl-3H-imidazo[4,5-b]pyridin-7-yl)amino)piperidine-1-carboxylate], the IC50 with HCC70 cells was determined as 50.5 nM; with OVCAR3 cells, 72.5 nM. The like results for `CC(C)c1cn2c(C(C)C)cnc2c(NC2CCN(C(=O)O[C@H]3CCN(C(=O)/C=C/CN(C)C)C3)CC2)n1` [SZ-015342, (S,E)-1-(4-(dimethylamino)but-2-enoyl)pyrrolidin-3-yl 4-((3,6-diisopropylimidazo[1,2-a]pyrazin-8-yl)amino)piperidine-1-carboxylate] were, in that order, 419 nM and 204 nM. For `Cc1cc(NC2CCN(C(=O)OC3CN(C(=O)/C=C/CN(C)C)C3)CC2)c2ncn(C(C)C)c2n1` [SZ-015307, (E)-1-(4-(dimethylamino)but-2-enoyl)azetidin-3-yl 4-((3-isopropyl-5-methyl-3H-imidazo[4,5-b]pyridin-7-yl)amino)piperidine-1-carboxylate], the IC50 in the assay with HCC70 cells was found to be 78 nM; in the assay with OVCAR3 cells, 139 nM. In the case of `CC(C)n1cnc2c(NC3CCN(C(=O)O[C@H]4CCN(C(=O)/C=C/CN(C)C)C4)CC3)nc(-c3cn[nH]c3)nc21` [SZ-015298, (S,E)-1-(4-(dimethylamino)but-2-enoyl)pyrrolidin-3-yl 4-((9-isopropyl-2-(1H-pyrazol-4-yl)-9H-purin-6-yl)amino)piperidine-1-carboxylate], inhibition in the assay with HCC70 cells was half-maximal at 405 nM (IC50).

For the compound `CC(C)c1cnn2c(NC3CCN(C(=O)O[C@H]4CCN(C(=O)/C=C/CN(C)C)C4)CC3)nc(NC3CC3)nc12` [SZ-015331, (S,E)-1-(4-(dimethylamino)but-2-enoyl)pyrrolidin-3-yl 4-((2-(cyclopropylamino)-8-isopropylpyrazolo[1,5-a][1,3,5]triazin-4-yl)amino)piperidine-1-carboxylate], the half-inhibitory concentration (IC50) in the assay on HCC70 cells turned out to be 70.1 nM; with OVCAR3 cells it was 36.7 nM. In the assay with HCC70 cells, `CC#CC(=O)N1CC[C@H](OC(=O)N2CCC(Nc3cc(C)nc4c3ncn4C(C)C)CC2)C1` [SZ-015289, (S)-1-(but-2-ynoyl)tetrahydropyrrol-3-yl 4-((3-isopropyl-5-methyl-3H-imidazo[4,5-b]pyridin-7-yl)amino)piperidine-1-carboxylate] had an IC50 of 117 nM. Turning to `CC(C)Oc1nc(NC2CCN(C(=O)O[C@H]3CCN(C(=O)/C=C/CN(C)C)C3)CC2)c2ncc(C(C)C)n2n1` [SZ-015346, (S,E)-1-(4-(dimethylamino)but-2-enoyl)pyrrolidin-3-yl 4-((2-isopropoxy-7-isopropylimidazo[2,1-f][1,2,4]triazin-4-yl)amino)piperidine-1-carboxylate], the results for the IC50 in the assay on HCC70 cells and in the assay on OVCAR3 cells were 140 nM and 48.8 nM, respectively. The like results for `COCCNc1cc(NC2CCN(C(=O)O[C@H]3CCN(C(=O)/C=C/CN(C)C)C3)CC2)c2ncn(C(C)C)c2n1` [SZ-015311, (S,E)-1-(4-(dimethylamino)but-2-enoyl)pyrrolidin-3-yl 4-((3-isopropyl-5-((2-methoxyethyl)amino)-3H-imidazo[4,5-b]pyridin-7-yl)amino)piperidine-1-carboxylate] were, in that order, 95 nM and 99.6 nM.

With `CC(C)Nc1nc(NC2CCN(C(=O)O[C@H]3CCN(C(=O)/C=C/CN(C)C)C3)CC2)n2ncc(C(C)C)c2n1` [SZ-015330, (S,E)-1-(4-(dimethylamino)but-2-enoyl)pyrrolidin-3-yl 4-((8-isopropyl-2-(isopropylamino)pyrazolo[1,5-a][1,3,5]triazin-4-yl)amino)piperidine-1-carboxylate], the results for the IC50 in the assay on HCC70 cells and in the assay with OVCAR3 cells were 61 nM and 44 nM, respectively. In turn, `CC#CC(=O)N1CC[C@@H](OC(=O)N2CCC(Nc3cc(C)nc4c3ncn4C(C)C)CC2)C1` [SZ-015284, (R)-1-(but-2-ynoyl)tetrahydropyrrol-3-yl 4-((3-isopropyl-5-methyl-3H-imidazo[4,5-b]pyridin-7-yl)amino)piperidine-1-carboxylate] had an IC50 in the assay with HCC70 cells of 97.4 nM.

As for `CC#CC(=O)N1CC[C@H](OC(=O)N2CCC(Nc3nc(C)nc4c(C(C)C)cnn34)CC2)C1` [SZ-015294, (S)-1-(but-2-ynoyl)pyrrolidin-3-yl 4-((8-isopropyl-2-methylpyrazolo[1,5-a][1,3,5]triazin-4-yl)amino)piperidine-1-carboxylate], the results for the half-maximal inhibitory concentration (IC50) with HCC70 cells and in the assay with OVCAR3 cells were 50.2 nM and 72.1 nM, respectively. For `CC(C)Nc1nc(NC2CCN(C(=O)O[C@H]3CCN(C(=O)/C=C/CN(C)C)C3)CC2)c2ncc(C(C)C)n2n1` [SZ-015328, (S,E)-1-(4-(dimethylamino)but-2-enoyl)pyrrolidin-3-yl 4-((7-isopropyl-2-(isopropylamino)imidazo[2,1-f][1,2,4]triazin-4-yl)amino)piperidine-1-carboxylate], in that order: 252 nM and 110 nM. As to `Cc1nc(NC2CCN(C(=O)O[C@H]3CCN(C(=O)/C=C/CN(C)C)C3)CC2)c2ncn(C(C)C)c2n1` [SZ-015264, (S,E)-1-(4-(dimethylamino)but-2-enoyl)pyrrolidin-3-yl 4-((9-isopropyl-2-methyl-9H-purin-6-yl)amino)piperidine-1-carboxylate], the results for the IC50 with HCC70 cells and in the assay with OVCAR3 cells were 181 nM and 234 nM, respectively.

Regarding `CCc1nc(NC2CCN(C(=O)O[C@H]3CCN(C(=O)/C=C/CN(C)C)C3)CC2)c2ncn(C(C)C)c2n1` [SZ-015310, (S,E)-1-(4-(dimethylamino)but-2-enoyl)pyrrolidin-3-yl 4-((2-ethyl-9-isopropyl-9H-purin-6-yl)amino)piperidine-1-carboxylate], the IC50 was 29.5 nM in the assay on HCC70 cells and 58.4 nM in the assay with OVCAR3 cells. The like results for `CC(C)n1cnc2c(NC3CCN(C(=O)O[C@H]4CCN(C(=O)/C=C/CN(C)C)C4)CC3)nc(CO)nc21` [SZ-015297, (S,E)-1-(4-(dimethylamino)but-2-enoyl)pyrrolidin-3-yl-4-((2-(hydroxymethyl)-9-isopropyl-9H-purin-6-yl)amino)piperidine-1-carboxylate] were, in that order, 252 nM and 168 nM. `CC[C@H](CO)Nc1nc(NC2CCN(C(=O)O[C@H]3CCN(C(=O)/C=C/CN(C)C)C3)CC2)n2ncc(C(C)C)c2n1` [SZ-015326, (S)-1-((E)-4-(dimethylamino)but-2-enoyl)pyrrolidin-3-yl 4-((2-(((R)-1-hydroxybutan-2-yl)amino)-8-isopropylpyrazolo[1,5-a][1,3,5]triazin-4-yl)amino)piperidine-1-carboxylate]: the IC50 in the assay on HCC70 cells turned out to be 50.3 nM; in the assay with OVCAR3 cells it was 33.2 nM. Consider `CC(C)c1cnn2c(NCc3ccccc3)cc(NC[C@H]3CCNC[C@@H]3O)nc12` [CT7001, reference compound], for which the IC50 amounted to 310 nM with HCC70 cells and 467 nM with OVCAR3 cells. The like results for `CC(C)Oc1nc(NC2CCN(C(=O)O[C@H]3CCN(C(=O)/C=C/CN(C)C)C3)CC2)n2ncc(C(C)C)c2n1` [SZ-015332, (S,E)-1-(4-(dimethylamino)but-2-enoyl)pyrrolidin-3-yl 4-((2-isopropoxy-8-isopropylpyrazolo[1,5-a][1,3,5]triazin-4-yl)amino)piperidine-1-carboxylate] were, in that order, 51.5 nM and 44.7 nM.

As to `CC(C)c1nc(NC2CCN(C(=O)O[C@H]3CCN(C(=O)/C=C/CN(C)C)C3)CC2)c2ncc(C(C)C)n2n1` [SZ-015339, (S,E)-1-(4-(dimethylamino)but-2-enoyl)pyrrolidin-3-yl 4-((2,7-diisopropylimidazo[2,1-f][1,2,4]triazin-4-yl)amino)piperidine-1-carboxylate], the concentration for half-maximal inhibition (IC50) with HCC70 cells is 54.7 nM; in the assay with OVCAR3 cells, 64.3 nM.
